Key:
[1] = (§1) Mouse liver microsomal stability of compound in microsomal protein, PBS buffer pH 7.4, NADPH, glucose-6-phosphate and glucose-6-phosphate dehydrogenase media. Aliquotes were taken at 5 time points and after stopping the reaction, supernatants were analyzed using HPLC coupled with a tandem mass spectrometer. The elimination constant, half-life, and intrinsic clearance are determined as results using linear regression analysis.; type: ADME, microsomes, Microsome; conditions: for half-life / microsomal CLint: liver microsomes; for Remaining / Remaining (without cofactor): microsomes
[2] = as §1, with “Human” for “Mouse”; type: ADME, microsomes, Microsome; conditions: for half-life / microsomal CLint: liver microsomes; for Remaining / Remaining (without cofactor): microsomes
For Remaining (without cofactor) in this document: time not given here.
For Remaining in this document: time not given here.

half-life [1]	microsomal CLint [1]	Remaining [1]	Remaining (without cofactor) [1]	half-life [2]	microsomal CLint [2]	Remaining [2]	Remaining (without cofactor) [2]	Structure (SMILES)
> 2.89 h	< 10 µL/min/mg	87.64%	93.435%	> 2.89 h	< 10 µL/min/mg	99%	112.283%	O=C1Cc2c(cc(F)cc2C(=O)Nc2ccc3c(c2)CNC3)N1
> 2.89 h	< 10 µL/min/mg	89.02%	93.513%	> 2.89 h	< 10 µL/min/mg	96.618%	96.957%	CC(C)n1cc2c(C(=O)Nc3ccc4c(c3)CNC4)cc(Cl)cc2n1
1.64 h	16.9 µL/min/mg	73.587%	92.469%	> 2.89 h	< 10 µL/min/mg	87.708%	99.462%	COc1ccc(-c2nc3c(C(=O)Nc4ccc5c(c4)CNC5)cc(F)cc3[nH]2)nn1
0.154 h	180 µL/min/mg	5.066%	103.462%	> 2.89 h	< 10 µL/min/mg	86.703%	98.509%	O=C(Nc1ccc2c(c1)CNC2)c1cc(F)cc2[nH]ncc12
